Literature values as cited in patent US9107921B2, “Oral dosage forms for oxygen containing active agents and oxyl-containing polymers” (Spriaso LLC, priority 2012, dated 2015).
Where a name gives a salt, the structure may show the parent alone.

Key:
[1] = for plasma half-life: in vivo

COc1ccc2c3c1O[C@H]1[C@@H](O)C=C[C@H]4[C@@H](C2)N(C)CC[C@@]341 [codeine, 3-methylmorphine]
plasma half-life [1]: 2.5 to 3 h

COc1ccc2c3c1O[C@H]1C(=O)CC[C@H]4[C@@H](C2)N(C)CC[C@]314 [Hydrocodone]
plasma half-life [1]: 3.8 to 6 h

CC(C)NCC(O)COc1cccc2ccccc12 (centres unmarked) [propranolol HCl]
time to 50% drug release in vitro (matrix tablet, HPMC (Methocel K4M) to active agent ratio 1:0.3 by weight): about 4 hours

CN(C)CCC(c1ccc(Cl)cc1)c1ccccn1 (centres unmarked) [chlorpheniramine, Chlorpheniramine]
time to peak plasma concentration ([1]; following oral administration): 2 to 3 h
time to 50% in vitro drug release (single-layer matrix tablet, HPMC polymer (Methocel K4M) to active ratio of about 1:1): about 3.5 hours
